Measured values as given in ChEMBL document CHEMBL4229518, “New β-lactam - Tetramic acid hybrids show promising antibacterial activities” (Bioorg Med Chem Lett, 2018).
≈ marks a conversion by molar mass, not a printed value.

Columns and labels:
Assay type in all cases: functional
Enterobacter cloacae = assay: Antimicrobial activity against Enterobacter cloacae ATCC 13047 after 18 to 20 hrs by microbroth dilution method; settings: subsp. cloacae ATCC 13047
Escherichia coli [1] = assay: Antimicrobial activity against Escherichia coli ATCC 35218 expressing TEM-1 beta lactamases after 18 to 20 hrs by microbroth dilution method
Streptococcus pneumoniae = assay: Antimicrobial activity against Streptococcus pneumoniae R6 after 18 to 20 hrs by microbroth dilution method
Escherichia coli [2] = assay: Antimicrobial activity against Escherichia coli BW25113 after 18 to 20 hrs by microbroth dilution method
Bacillus subtilis = assay: Antimicrobial activity against Bacillus subtilis ATCC 23857 after 18 to 20 hrs by microbroth dilution method
Bacillus cereus = assay: Antimicrobial activity against Bacillus cereus ATCC 14579 after 18 to 20 hrs by microbroth dilution method
Streptococcus pyogenes = assay: Antimicrobial activity against Streptococcus pyogenes ATCC 700294 after 18 to 20 hrs by microbroth dilution method; settings: M1 GAS
Pseudomonas aeruginosa = assay: Antimicrobial activity against Pseudomonas aeruginosa PAO1 after 18 to 20 hrs by microbroth dilution method
Escherichia coli [3] = assay: Antimicrobial activity against Escherichia coli isolate SJ 3 after 18 to 20 hrs by microbroth dilution method
Escherichia coli [4] = assay: Antimicrobial activity against Escherichia coli isolate SJ 1 after 18 to 20 hrs by microbroth dilution method
Escherichia coli [5] = assay: Antimicrobial activity against Escherichia coli isolate SJ 4 after 18 to 20 hrs by microbroth dilution method
Staphylococcus aureus [6] = assay: Antimicrobial activity against methicillin-susceptible Staphylococcus aureus ATCC 29213 after 18 to 20 hrs by microbroth dilution method
Escherichia coli [7] = assay: Antimicrobial activity against Escherichia coli isolate SJ 2 after 18 to 20 hrs by microbroth dilution method
Acinetobacter baumannii = assay: Antimicrobial activity against Acinetobacter baumannii ATCC 19606 after 18 to 20 hrs by microbroth dilution method; settings: ATCC 19606 = CIP 70.34 = JCM 6841
Escherichia coli [8] = assay: Antimicrobial activity against tolC deficient Escherichia coli JW5503-1 after 18 to 20 hrs by microbroth dilution method
Enterococcus faecalis = assay: Antimicrobial activity against Enterococcus faecalis ATCC 33186 after 18 to 20 hrs by microbroth dilution method
Escherichia coli [9] = assay: Antimicrobial activity against Escherichia coli ATCC 25922 after 18 to 20 hrs by microbroth dilution method
Bacillus anthracis = assay: Antimicrobial activity against Bacillus anthracis Sterne 34F2 after 18 to 20 hrs by microbroth dilution method
Klebsiella pneumoniae [10] = assay: Antimicrobial activity against Klebsiella pneumoniae isolate SJ 3 after 18 to 20 hrs by microbroth dilution method
[11] = system: Stenotrophomonas maltophilia; assay: Antimicrobial activity against Stenotrophomonas maltophilia ATCC 700475 after 18 to 20 hrs by microbroth dilution method
Klebsiella pneumoniae [12] = assay: Antimicrobial activity against Klebsiella pneumoniae isolate SJ 5 after 18 to 20 hrs by microbroth dilution method
Proteus mirabilis = assay: Antimicrobial activity against Proteus mirabilis ATCC 25933 after 18 to 20 hrs by microbroth dilution method
Escherichia coli [13] = assay: Antimicrobial activity against Escherichia coli isolate SJ 6 after 18 to 20 hrs by microbroth dilution method
Klebsiella pneumoniae [14] = assay: Antimicrobial activity against Klebsiella pneumoniae isolate SJ 2 after 18 to 20 hrs by microbroth dilution method
Escherichia coli [15] = assay: Antimicrobial activity against Escherichia coli isolate SJ 5 after 18 to 20 hrs by microbroth dilution method
Klebsiella pneumoniae [16] = assay: Antimicrobial activity against Klebsiella pneumoniae isolate SJ 1 after 18 to 20 hrs by microbroth dilution method
Klebsiella pneumoniae [17] = assay: Antimicrobial activity against Klebsiella pneumoniae ATCC 33495 after 18 to 20 hrs by microbroth dilution method
Staphylococcus aureus [18] = assay: Antimicrobial activity against methicillin-susceptible Staphylococcus aureus NRS70 after 18 to 20 hrs by microbroth dilution method
Klebsiella pneumoniae [19] = assay: Antimicrobial activity against Klebsiella pneumoniae isolate SJ 4 after 18 to 20 hrs by microbroth dilution method

SMILES | MIC (Enterobacter cloacae) | MIC (Escherichia coli [1]) | MIC (Escherichia coli [2]) | MIC (Pseudomonas aeruginosa) | MIC (Escherichia coli [3]) | MIC (Escherichia coli [4]) | MIC (Escherichia coli [5]) | MIC (Escherichia coli [7]) | MIC (Acinetobacter baumannii) | MIC (Escherichia coli [8]) | MIC (Escherichia coli [9]) | MIC (Klebsiella pneumoniae [10]) | MIC (Klebsiella pneumoniae [12]) | MIC (Proteus mirabilis) | MIC (Escherichia coli [13]) | MIC (Klebsiella pneumoniae [14]) | MIC (Escherichia coli [15]) | MIC (Klebsiella pneumoniae [16]) | MIC (Klebsiella pneumoniae [17]) | MIC (Klebsiella pneumoniae [19]) | other results
CC1(C)S[C@@H]2[C@H](NC(=O)[C@H](N)c3ccccc3)C(=O)N2[C@H]1C(=O)O [AMPICILLIN] | > 200 µg/mL | > 200 µg/mL | 3.13 µg/mL (≈ 8.96 µM) | 200 µg/mL (≈ 572 µM) | > 200 µg/mL | > 200 µg/mL | > 200 µg/mL | > 200 µg/mL | 50 µg/mL (≈ 143 µM) | 1.56 µg/mL (≈ 4.46 µM) | 3.13 µg/mL (≈ 8.96 µM) | 100 µg/mL (≈ 286 µM) | > 200 µg/mL | < 0.2 µg/mL | > 200 µg/mL | 25 µg/mL (≈ 71.5 µM) | > 200 µg/mL | > 200 µg/mL | 100 µg/mL (≈ 286 µM) | 100 µg/mL (≈ 286 µM) | MIC (Streptococcus pneumoniae): < 0.2 µg/mL; MIC (Bacillus subtilis): < 0.2 µg/mL; MIC (Bacillus cereus): 25 µg/mL (≈ 71.5 µM); MIC (Streptococcus pyogenes): < 0.2 µg/mL; MIC (Staphylococcus aureus [6]): < 0.2 µg/mL; MIC (Enterococcus faecalis): 0.78 µg/mL (≈ 2.23 µM); MIC (Bacillus anthracis): < 0.2 µg/mL; MIC [11]: 6.25 µg/mL (≈ 17.9 µM); MIC (Staphylococcus aureus [18]): 25 µg/mL (≈ 71.5 µM)
CO[C@@]1(NC(=O)C2SC(=C(C(N)=O)C(=O)O)S2)C(=O)N2C(C(=O)O)=C(CSc3nnnn3C)CS[C@@H]21 (some centres not stated) [CEFOTETAN] | – | < 0.2 µg/mL | 25 µg/mL (≈ 43.4 µM) | > 200 µg/mL | 0.78 µg/mL (≈ 1.36 µM) | 0.39 µg/mL (≈ 0.678 µM) | 1.56 µg/mL (≈ 2.71 µM) | 1.56 µg/mL (≈ 2.71 µM) | 100 µg/mL (≈ 174 µM) | 1.56 µg/mL (≈ 2.71 µM) | 1.56 µg/mL (≈ 2.71 µM) | 0.39 µg/mL (≈ 0.678 µM) | 1.56 µg/mL (≈ 2.71 µM) | < 0.2 µg/mL | 25 µg/mL (≈ 43.4 µM) | < 0.2 µg/mL | 12.5 µg/mL (≈ 21.7 µM) | < 0.2 µg/mL | < 0.2 µg/mL | 0.39 µg/mL (≈ 0.678 µM) | –
N[C@@H](C(=O)N[C@@H]1C(=O)N2C(C(=O)O)=C(Cl)CS[C@H]12)c1ccccc1 [CEFACLOR ANHYDROUS] | > 200 µg/mL | 50 µg/mL (≈ 136 µM) | 6.25 µg/mL (≈ 17 µM) | > 200 µg/mL | 12.5 µg/mL (≈ 34 µM) | 50 µg/mL (≈ 136 µM) | > 200 µg/mL | 200 µg/mL (≈ 544 µM) | 200 µg/mL (≈ 544 µM) | 6.25 µg/mL (≈ 17 µM) | 12.5 µg/mL (≈ 34 µM) | 1.56 µg/mL (≈ 4.24 µM) | > 200 µg/mL | 3.13 µg/mL (≈ 8.51 µM) | > 200 µg/mL | 1.56 µg/mL (≈ 4.24 µM) | 50 µg/mL (≈ 136 µM) | 200 µg/mL (≈ 544 µM) | 1.56 µg/mL (≈ 4.24 µM) | 1.56 µg/mL (≈ 4.24 µM) | MIC (Streptococcus pneumoniae): 0.78 µg/mL (≈ 2.12 µM); MIC (Bacillus subtilis): < 0.2 µg/mL; MIC (Bacillus cereus): > 200 µg/mL; MIC (Streptococcus pyogenes): 0.39 µg/mL (≈ 1.06 µM); MIC (Staphylococcus aureus [6]): 1.56 µg/mL (≈ 4.24 µM); MIC (Enterococcus faecalis): 25 µg/mL (≈ 68 µM); MIC (Bacillus anthracis): 0.39 µg/mL (≈ 1.06 µM); MIC [11]: > 200 µg/mL; MIC (Staphylococcus aureus [18]): 100 µg/mL (≈ 272 µM)
